{"source": "paper PMC10638516", "about": "(Acta Pharmaceutica Sinica. B, 2023)", "key": {"h5-HT2C": {"molecular_target": "h5-HT2C (Rattus norvegicus, UniProt P08909)", "assay": "biochemical", "assay_type": "binding", "details": "Table 6 selectivity profile"}, "hD5": {"molecular_target": "hD5 (Homo sapiens, UniProt P21918)", "sequence (P21918 whole entry)": "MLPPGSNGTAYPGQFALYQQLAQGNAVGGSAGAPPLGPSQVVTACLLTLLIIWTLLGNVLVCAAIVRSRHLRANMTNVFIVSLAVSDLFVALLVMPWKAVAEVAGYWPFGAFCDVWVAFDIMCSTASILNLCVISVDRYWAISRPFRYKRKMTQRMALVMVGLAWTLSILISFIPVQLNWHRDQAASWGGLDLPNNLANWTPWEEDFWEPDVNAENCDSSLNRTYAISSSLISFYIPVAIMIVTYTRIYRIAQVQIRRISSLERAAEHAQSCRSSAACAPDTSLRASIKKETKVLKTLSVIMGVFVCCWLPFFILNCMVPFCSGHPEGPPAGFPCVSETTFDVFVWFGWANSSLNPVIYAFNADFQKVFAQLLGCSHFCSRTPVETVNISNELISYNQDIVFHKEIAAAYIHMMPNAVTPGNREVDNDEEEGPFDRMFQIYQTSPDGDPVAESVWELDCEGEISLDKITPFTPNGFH", "assay": "biochemical", "assay_type": "binding"}, "[1]": {"assay": "Weight gain on repeated oral dosing", "assay_type": "in vivo, mouse", "details": "mice, p.o. once daily 30 days; 23j, 36b 30 mg/kg; RPD 1 mg/kg"}, "mice [2]": {"test_system": "mice", "assay": "Catalepsy test in mice", "assay_type": "in vivo, mouse"}, "ICR mice [3]": {"test_system": "ICR mice", "assay": "Apomorphine-induced climbing", "assay_type": "in vivo, mouse", "details": "i.p., apomorphine 1.0 mg/kg s.c."}, "[4]": {"assay": "Pharmacokinetics study in ICR mice", "assay_type": "in vivo, mouse", "details": "for half-life: t1/2, ICR mice"}, "hD4": {"molecular_target": "hD4 (Homo sapiens, UniProt P21917)", "sequence (P21917 whole entry)": "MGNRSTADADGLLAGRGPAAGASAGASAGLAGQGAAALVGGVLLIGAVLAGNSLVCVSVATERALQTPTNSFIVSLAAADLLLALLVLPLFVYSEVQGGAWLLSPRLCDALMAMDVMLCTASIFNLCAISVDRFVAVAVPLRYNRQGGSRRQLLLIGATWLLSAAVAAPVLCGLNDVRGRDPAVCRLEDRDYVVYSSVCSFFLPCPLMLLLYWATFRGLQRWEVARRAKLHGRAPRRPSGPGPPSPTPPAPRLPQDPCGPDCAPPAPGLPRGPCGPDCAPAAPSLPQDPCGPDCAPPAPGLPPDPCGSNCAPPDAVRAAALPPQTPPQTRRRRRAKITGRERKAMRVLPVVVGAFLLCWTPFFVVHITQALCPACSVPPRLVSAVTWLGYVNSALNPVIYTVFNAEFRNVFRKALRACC", "assay": "biochemical", "assay_type": "binding"}, "hD3R [5]": {"molecular_target": "T1, hD3R (Homo sapiens, UniProt P35462)", "T1 sequence (P35462 whole entry)": "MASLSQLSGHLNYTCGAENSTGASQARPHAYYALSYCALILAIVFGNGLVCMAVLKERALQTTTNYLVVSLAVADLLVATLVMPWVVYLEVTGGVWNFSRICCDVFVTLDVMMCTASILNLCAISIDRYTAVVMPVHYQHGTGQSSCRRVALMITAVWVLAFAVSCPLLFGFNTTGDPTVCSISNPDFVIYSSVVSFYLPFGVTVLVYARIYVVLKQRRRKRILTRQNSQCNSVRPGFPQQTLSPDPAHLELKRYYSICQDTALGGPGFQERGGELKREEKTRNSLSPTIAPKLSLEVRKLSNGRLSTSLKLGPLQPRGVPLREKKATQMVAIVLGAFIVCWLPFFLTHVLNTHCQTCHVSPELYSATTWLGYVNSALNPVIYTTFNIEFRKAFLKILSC", "assay": "biochemical", "assay_type": "binding"}, "mice [6]": {"test_system": "mice", "assay": "Acute toxicity assay in mice", "assay_type": "in vivo, mouse", "details": "i.p., up to 600 mg/kg"}, "h5-HT1A": {"molecular_target": "h5-HT1A (Homo sapiens, UniProt P08908)", "sequence (P08908 whole entry)": "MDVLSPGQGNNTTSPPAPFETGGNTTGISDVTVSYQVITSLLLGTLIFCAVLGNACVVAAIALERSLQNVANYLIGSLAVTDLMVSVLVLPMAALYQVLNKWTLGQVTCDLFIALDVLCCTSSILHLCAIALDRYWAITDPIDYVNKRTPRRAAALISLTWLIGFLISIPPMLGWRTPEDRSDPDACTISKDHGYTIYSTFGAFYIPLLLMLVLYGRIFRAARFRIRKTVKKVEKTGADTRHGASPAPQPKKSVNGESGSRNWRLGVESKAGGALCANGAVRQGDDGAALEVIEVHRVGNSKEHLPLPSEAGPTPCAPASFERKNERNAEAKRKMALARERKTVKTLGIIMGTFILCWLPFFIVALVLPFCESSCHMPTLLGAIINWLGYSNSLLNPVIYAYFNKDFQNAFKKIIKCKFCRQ", "assay": "biochemical", "assay_type": "binding"}, "hD2R [7]": {"molecular_target": "T2, hD2R (Homo sapiens, UniProt P14416)", "T2 sequence (P14416 whole entry)": "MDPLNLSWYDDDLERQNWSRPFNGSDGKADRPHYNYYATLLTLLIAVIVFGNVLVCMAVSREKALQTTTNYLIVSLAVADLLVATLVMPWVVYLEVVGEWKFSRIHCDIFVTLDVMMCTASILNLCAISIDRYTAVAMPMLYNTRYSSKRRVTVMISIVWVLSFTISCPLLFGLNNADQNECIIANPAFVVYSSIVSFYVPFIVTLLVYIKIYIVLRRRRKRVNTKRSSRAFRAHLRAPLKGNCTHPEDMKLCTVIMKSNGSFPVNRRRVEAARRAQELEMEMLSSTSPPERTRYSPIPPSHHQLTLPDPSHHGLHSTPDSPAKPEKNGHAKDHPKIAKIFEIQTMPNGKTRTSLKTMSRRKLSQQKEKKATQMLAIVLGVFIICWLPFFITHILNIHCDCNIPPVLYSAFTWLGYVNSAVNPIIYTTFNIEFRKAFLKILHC", "assay_type": "cell-based"}, "hD1": {"molecular_target": "hD1 (Homo sapiens, UniProt P21728)", "sequence (P21728 whole entry)": "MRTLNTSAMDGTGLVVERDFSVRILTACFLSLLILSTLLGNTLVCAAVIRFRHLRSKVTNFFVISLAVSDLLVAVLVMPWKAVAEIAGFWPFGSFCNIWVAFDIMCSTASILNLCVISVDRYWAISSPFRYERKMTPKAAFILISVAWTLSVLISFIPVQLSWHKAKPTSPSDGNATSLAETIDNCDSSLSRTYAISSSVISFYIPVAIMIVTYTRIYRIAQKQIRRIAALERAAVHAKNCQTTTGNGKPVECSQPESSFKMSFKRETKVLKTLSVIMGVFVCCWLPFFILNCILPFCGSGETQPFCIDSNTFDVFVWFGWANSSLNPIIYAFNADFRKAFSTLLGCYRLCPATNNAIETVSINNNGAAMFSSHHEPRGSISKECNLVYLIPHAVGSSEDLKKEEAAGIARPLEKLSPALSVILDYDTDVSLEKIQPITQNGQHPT", "assay": "biochemical", "assay_type": "binding"}, "ICR mice [8]": {"test_system": "ICR mice", "assay": "Spontaneous locomotor test", "details": "compounds 30 mg/kg i.p., RPD 1 mg/kg, 15 min"}, "h5-HT6": {"molecular_target": "h5-HT6 (Homo sapiens, UniProt P50406)", "assay": "biochemical", "assay_type": "binding"}, "[9]": {"assay": "BBB penetration study in ICR mice", "assay_type": "in vivo, mouse"}, "hERG channel": {"molecular_target": "hERG channel (Homo sapiens, UniProt Q12809)", "sequence (Q12809 whole entry)": "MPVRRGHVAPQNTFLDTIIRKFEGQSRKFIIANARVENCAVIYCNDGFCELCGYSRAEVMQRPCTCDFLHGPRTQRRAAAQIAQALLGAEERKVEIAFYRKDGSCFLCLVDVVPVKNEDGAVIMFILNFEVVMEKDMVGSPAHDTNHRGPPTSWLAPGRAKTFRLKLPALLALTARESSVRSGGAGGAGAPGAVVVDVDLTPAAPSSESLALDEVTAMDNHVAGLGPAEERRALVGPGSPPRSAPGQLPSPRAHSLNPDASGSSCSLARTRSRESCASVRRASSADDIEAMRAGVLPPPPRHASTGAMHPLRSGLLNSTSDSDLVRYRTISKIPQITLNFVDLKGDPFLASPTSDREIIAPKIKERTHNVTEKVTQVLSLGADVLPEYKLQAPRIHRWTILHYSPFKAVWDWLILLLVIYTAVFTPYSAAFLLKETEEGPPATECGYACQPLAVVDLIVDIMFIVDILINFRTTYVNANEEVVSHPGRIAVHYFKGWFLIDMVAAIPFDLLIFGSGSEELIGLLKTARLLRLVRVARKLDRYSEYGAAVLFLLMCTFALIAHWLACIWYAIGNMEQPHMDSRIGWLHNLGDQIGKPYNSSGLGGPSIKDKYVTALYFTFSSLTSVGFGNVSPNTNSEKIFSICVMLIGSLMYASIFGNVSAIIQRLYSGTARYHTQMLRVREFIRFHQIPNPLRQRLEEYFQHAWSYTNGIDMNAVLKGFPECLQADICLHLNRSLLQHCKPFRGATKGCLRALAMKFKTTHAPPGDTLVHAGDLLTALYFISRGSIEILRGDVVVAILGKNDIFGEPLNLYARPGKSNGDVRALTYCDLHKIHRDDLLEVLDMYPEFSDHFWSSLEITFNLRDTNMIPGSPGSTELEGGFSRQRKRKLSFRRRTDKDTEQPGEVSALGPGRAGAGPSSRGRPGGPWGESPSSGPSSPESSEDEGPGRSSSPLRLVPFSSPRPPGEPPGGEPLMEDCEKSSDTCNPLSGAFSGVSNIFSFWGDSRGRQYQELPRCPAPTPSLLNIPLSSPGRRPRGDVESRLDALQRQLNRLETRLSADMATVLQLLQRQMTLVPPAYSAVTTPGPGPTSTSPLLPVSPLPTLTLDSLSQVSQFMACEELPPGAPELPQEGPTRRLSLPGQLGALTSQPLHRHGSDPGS", "assay": "hERG channel automated patch clamp", "assay_type": "cell-based", "details": "hERG inhibition IC50, patch clamp, tested three times"}, "hH1": {"molecular_target": "hH1 (Cavia porcellus, UniProt P31389)", "assay": "biochemical", "assay_type": "binding, guinea pig"}, "PC12 cells": {"test_system": "PC12 cells", "assay": "CCK8 cytotoxicity test, PC12", "assay_type": "cell-based", "details": "24 h"}, "hDAT": {"molecular_target": "hDAT (Rattus norvegicus, UniProt P23977)", "assay": "biochemical", "assay_type": "binding", "details": "Table 6 selectivity profile"}, "h5-HT2A": {"molecular_target": "h5-HT2A (Homo sapiens, UniProt P28223)", "assay": "biochemical", "assay_type": "binding"}, "hNET": {"molecular_target": "hNET (Homo sapiens, UniProt P23975)", "sequence (P23975 whole entry)": "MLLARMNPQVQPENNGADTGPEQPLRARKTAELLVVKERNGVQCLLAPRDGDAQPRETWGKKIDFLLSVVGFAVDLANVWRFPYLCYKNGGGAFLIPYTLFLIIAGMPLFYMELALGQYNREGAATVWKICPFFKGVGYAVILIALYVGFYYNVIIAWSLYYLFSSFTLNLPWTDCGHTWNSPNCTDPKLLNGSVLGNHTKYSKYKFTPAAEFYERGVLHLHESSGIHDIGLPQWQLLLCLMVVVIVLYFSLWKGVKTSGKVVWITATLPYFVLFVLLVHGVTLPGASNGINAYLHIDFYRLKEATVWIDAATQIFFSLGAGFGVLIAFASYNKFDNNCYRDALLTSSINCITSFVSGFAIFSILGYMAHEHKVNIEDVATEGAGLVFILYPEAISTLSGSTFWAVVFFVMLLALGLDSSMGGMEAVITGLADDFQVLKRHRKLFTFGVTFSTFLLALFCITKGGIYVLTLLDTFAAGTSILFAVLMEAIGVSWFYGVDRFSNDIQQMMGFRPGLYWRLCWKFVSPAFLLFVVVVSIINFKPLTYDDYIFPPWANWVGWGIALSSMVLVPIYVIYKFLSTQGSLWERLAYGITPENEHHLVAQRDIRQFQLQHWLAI", "assay": "biochemical", "assay_type": "binding"}, "mice [10]": {"test_system": "mice", "assay": "Serum prolactin after repeated oral dosing", "assay_type": "in vivo, mouse", "details": "after 30 days p.o. dosing, 23j, 36b 30 mg/kg, RPD 1 mg/kg"}, "hD2R [11]": {"molecular_target": "T2, hD2R", "assay": "biochemical", "assay_type": "binding"}, "hSERT": {"molecular_target": "hSERT (Homo sapiens, UniProt P31645)", "sequence (P31645 whole entry)": "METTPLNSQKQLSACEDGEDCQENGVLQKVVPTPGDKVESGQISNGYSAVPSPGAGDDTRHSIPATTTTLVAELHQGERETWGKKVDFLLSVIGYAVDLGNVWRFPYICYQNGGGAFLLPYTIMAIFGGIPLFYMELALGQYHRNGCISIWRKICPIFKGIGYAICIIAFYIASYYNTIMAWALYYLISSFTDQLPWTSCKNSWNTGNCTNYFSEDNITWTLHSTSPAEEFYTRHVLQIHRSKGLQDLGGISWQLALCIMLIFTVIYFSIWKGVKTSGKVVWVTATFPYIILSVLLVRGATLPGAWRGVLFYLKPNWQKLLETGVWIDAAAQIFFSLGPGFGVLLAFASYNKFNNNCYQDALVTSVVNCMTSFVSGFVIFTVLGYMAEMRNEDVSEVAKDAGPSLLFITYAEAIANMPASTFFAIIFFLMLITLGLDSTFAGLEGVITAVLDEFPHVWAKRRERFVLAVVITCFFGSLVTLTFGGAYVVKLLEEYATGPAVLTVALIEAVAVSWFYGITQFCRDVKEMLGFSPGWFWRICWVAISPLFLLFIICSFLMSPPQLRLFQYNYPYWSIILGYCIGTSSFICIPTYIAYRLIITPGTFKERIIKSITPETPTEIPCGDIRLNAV", "assay": "biochemical", "assay_type": "binding"}, "h5-HT1B": {"molecular_target": "h5-HT1B (Homo sapiens, UniProt P28222)", "assay": "biochemical", "assay_type": "binding"}, "ICR mice [12]": {"test_system": "ICR mice", "assay": "MK-801-induced hyperactivity", "details": "3 mg/kg i.p."}, "hD3R [13]": {"molecular_target": "T1, hD3R", "assay": "ERK1/2 phosphorylation", "assay_type": "cell-based"}, "hα1": {"molecular_target": "hα1", "assay_type": "binding, rat", "details": "read-out: Ki hα1; Table 6 selectivity profile"}, "[14]": {"details": "ICR, mouse, plasma, iv, 3 mg/kg"}, "[15]": {"details": "ICR, mouse, plasma, po, 10 mg/kg"}}}
{"smiles": "CCn1c2ccccc2c2cc(CNCCCCNC(=O)c3ccc(-c4cccnc4)cc3)ccc21", "note": "[23j]", "values": [{"measurement": "Ki", "setting": "h5-HT2C", "value": 2.23, "unit": "µM"}, {"measurement": "Ki", "setting": "hD5", "value": "> 10", "unit": "µM"}, {"measurement": "body weight / weight gain", "setting": "[1]", "value": "No influence on body weight"}, {"measurement": "Catalepsy MED i.p. (minimum effective dose)", "setting": "mice [2]", "value": "≥240.0", "unit": "mg/kg"}, {"measurement": "Catalepsy peak effect (percent of cataleptic animals)", "setting": "mice [2]; i.p.", "value": 0.0, "unit": "%"}, {"measurement": "catalepsy under all tested doses", "setting": "mice [2]; i.p., 23j up to 240 mg/kg, 36a/b/f up to 480 mg/kg", "value": "did not elicit catalepsy"}, {"measurement": "inhibition of apomorphine-induced climbing", "setting": "ICR mice [3]", "value": "dose-dependently inhibit"}, {"measurement": "t1/2", "setting": "[4]; ICR mice, 10 mg/kg p.o., single dose, 10 mg/kg", "value": 70.2, "unit": "min"}, {"measurement": "AUC", "setting": "[4]; [14]", "value": 326, "unit": "ng·h/mL"}, {"measurement": "Cmax", "setting": "[4]; [14]", "value": 567, "unit": "ng/mL"}, {"measurement": "MRT", "setting": "[4]; [14]", "value": 28.8, "unit": "min"}, {"measurement": "Tmax", "setting": "[4]; [14]", "value": 4.8, "unit": "min"}, {"measurement": "Vd", "setting": "[4]; [14]", "value": 4.44, "unit": "L/kg"}, {"measurement": "clearance", "setting": "[4]; [14]", "value": 153, "unit": "mL/min/kg"}, {"measurement": "half-life", "setting": "[4]; ICR, mouse, plasma, iv, 3 mg/kg, 3 mg/kg i.v., single dose", "value": 31.8, "unit": "min"}, {"measurement": "bioavailability", "setting": "[4]; ICR, mouse, plasma, oral, 10 mg/kg", "value": 8.7, "unit": "%"}, {"measurement": "AUC", "setting": "[4]; [15]", "value": 94.4, "unit": "ng·h/mL"}, {"measurement": "Cmax", "setting": "[4]; [15]", "value": 78.8, "unit": "ng/mL"}, {"measurement": "MRT", "setting": "[4]; [15]", "value": 52.2, "unit": "min"}, {"measurement": "Tmax", "setting": "[4]; [15]", "value": 10.2, "unit": "min"}, {"measurement": "half-life", "setting": "[4]; ICR, mouse, plasma, po, 10 mg/kg, 10 mg/kg p.o., single dose", "value": 66, "unit": "min"}, {"measurement": "Ki", "setting": "hD4", "value": "> 10", "unit": "µM"}, {"measurement": "improvement of D3R binding affinity versus the phenyl group (23g)", "setting": "hD3R [5]", "value": "approximately 10 fold"}, {"measurement": "Ki", "setting": "hD3R [5]; Ki hD3, Table 6 selectivity profile", "value": 0.0168, "unit": "µM"}, {"measurement": "Ki", "setting": "hD3R [5]; Ki hD3, three experiments, means ± SEM", "value": "0.0139 ± 0.0034", "unit": "µM"}, {"measurement": "inhibition at 10 µM", "setting": "hD3R [5]; read-out: % inhibition at 10 μmol/L hD3, 10 μmol/L test compound", "value": "107.3 ± 0.3", "unit": "%"}, {"measurement": "acute toxicity / tolerance", "setting": "mice [6]", "value": "dose-dependent lethal toxicity from 240 to 600 mg/kg"}, {"measurement": "Ki", "setting": "h5-HT1A", "value": 0.579, "unit": "µM"}, {"measurement": "effect on ERK1/2 phosphorylation mediated by hD2R, compound alone (agonist mode)", "setting": "hD2R [7]", "value": "weak partial agonism"}, {"measurement": "Ki", "setting": "hD1", "value": "> 10", "unit": "µM"}, {"measurement": "effect on spontaneous locomotion", "setting": "ICR mice [8]", "value": "no influences"}, {"measurement": "Ki", "setting": "h5-HT6", "value": 8.72, "unit": "µM"}, {"measurement": "Brain/plasma ratio at 2.0 h", "setting": "[9]; 3 mg/kg i.v., 3 mg/kg", "value": 1.60}, {"measurement": "Brain concentration at 0.5 h", "setting": "[9]; 10 mg/kg p.o.", "value": "too low to test"}, {"measurement": "concentration at 0.5 h", "setting": "[9]; ICR, mouse, brain, iv, 3 mg/kg, Brain concentration at 0.5 h, 3 mg/kg i.v.", "value": 98, "unit": "ng/mL"}, {"measurement": "concentration at 2 h", "setting": "[9]; ICR, mouse, brain, iv, 3 mg/kg, Brain concentration at 2.0 h, 3 mg/kg i.v.", "value": 11.5, "unit": "ng/mL"}, {"measurement": "Kp at 0.5 h", "setting": "[9]; ICR, mouse, brain, iv, 3 mg/kg, Brain/plasma ratio at 0.5 h, 3 mg/kg i.v.", "value": 0.55}, {"measurement": "concentration at 0.5 h", "setting": "[9]; ICR, mouse, plasma, iv, 3 mg/kg, Plasma concentration at 0.5 h, 3 mg/kg i.v.", "value": 180, "unit": "ng/mL"}, {"measurement": "concentration at 2 h", "setting": "[9]; ICR, mouse, plasma, iv, 3 mg/kg, Plasma concentration at 2.0 h, 3 mg/kg i.v.", "value": 7.17, "unit": "ng/mL"}, {"measurement": "concentration at 0.5 h", "setting": "[9]; ICR, mouse, plasma, po, 10 mg/kg, Plasma concentration at 0.5 h, 10 mg/kg p.o.", "value": 53.4, "unit": "ng/mL"}, {"measurement": "concentration at 2 h", "setting": "[9]; ICR, mouse, plasma, po, 10 mg/kg, Plasma concentration at 2.0 h, 10 mg/kg p.o.", "value": 2.89, "unit": "ng/mL"}, {"measurement": "IC50", "setting": "hERG channel", "value": 2.46, "unit": "µM"}, {"measurement": "Ki", "setting": "hH1", "value": 5.2, "unit": "µM"}, {"measurement": "cytotoxicity in PC12 cells", "setting": "PC12 cells", "value": "significant cytotoxicity at high concentrations"}, {"measurement": "Ki", "setting": "hDAT", "value": 6.1, "unit": "µM"}, {"measurement": "Ki", "setting": "h5-HT2A", "value": 0.214, "unit": "µM"}, {"measurement": "Ki", "setting": "hNET", "value": "> 10", "unit": "µM"}, {"measurement": "serum prolactin level", "setting": "mice [10]", "value": "nonsignificant serum prolactin change"}, {"measurement": "Ki", "setting": "hD2R [11]", "value": "> 10", "unit": "µM"}, {"measurement": "inhibition at 10 µM", "setting": "hD2R [11]; read-out: % inhibition at 10 μmol/L hD2", "value": "12.4 ± 5.8", "unit": "%"}, {"measurement": "Ki", "setting": "hSERT", "value": 5.41, "unit": "µM"}, {"measurement": "Ki", "setting": "h5-HT1B", "value": 0.172, "unit": "µM"}, {"measurement": "inhibition of MK-801-induced hyperactivity at 3 mg/kg", "setting": "ICR mice [12]", "value": "did not show the inhibition activity"}, {"measurement": "effect on ERK1/2 phosphorylation mediated by hD3R, compound alone (agonist mode)", "setting": "hD3R [13]; CHO-hD3R cells, quinpirole at 20 μmol/L", "value": "no influence"}, {"measurement": "competitive antagonism of ERK1/2 phosphorylation mediated by D3R", "setting": "hD3R [13]; in the presence of 20 μmol/L dopamine", "value": "dose-dependently inhibit"}, {"measurement": "Ki", "setting": "hα1", "value": 8.35, "unit": "µM"}]}
